In patent US20050079502A1, “Transplant rejection suppressor” (AJINOMOTO CO. INC., priority 2000, published 2005):

How the values were obtained:
[1] = system: corneal graft (B10.D2 donor, BALB/c recipient, different in minor antigen only); test: Corneal transplantation into high-risk eyes (induced corneal new blood vessels); rejection judged by corneal opacity score; type: in vivo, mouse
Excerpt: In estimating the induction of the cornea take in the corneal allograft, mice, 8 to 10 weeks old, are used, a BALB/c (H-2d) mouse is used as a recipient, and a B10.D2 (H-2d) mouse only different in minor antigen is used as a donor.
The corneal transplantation inducing corneal new blood vessel of a high-risk eye that tends to cause rejection at a high rate in an early stage in a recipient: a corneal parenchyma is sutured with three stitches using a 11-0 nylon yarn which is allowed to stand for 14 days and the nylon yarn is removed in the corneal transplantation, is performed as follows. To a recipient mouse are intraperitoneally administered 3 mg of ketamine and 0.0075 mg of xylazine for anesthesia, and transplantation is performed. A central portion of cornea in a donor mouse is cut out to a circle having a diameter of 2 mm to form a graft. A central portion of cornea in a host mouse is cut out to a diameter of 2 mm. The donor cornea is sutured on margins with eight stitches using a 11-0 nylon yarn. After the surgical operation, an antibiotic ointment is coated thereon, and the eyelids are sutured with a 8-0 nylon yarn. The eyelid suture is removed after 72 hours from the surgical operation, and the corneal suture is removed on day 7 after the transplantation.
In the judgement of the corneal rejection, monitoring is performed twice a week using a slit-lamp microscope. The rejection is judged by scoring a corneal opacity with six grades. In connection with a time capable of judgement, the score of 3 or more on or after day 14 from the transplantation and the score of 2 or more on or after day 21 are judged to indicate the rejection. […]
In a method of one administration, a drug is dissolved or suspended in a physiological saline solution to a predetermined concentration, and 0.5 ml thereof is then intraperitoneally injected in a mouse. […] A significant difference in graft survival rate of the corneal transplantation was comparatively detected by the Breslow-Gehan-Wilcoxon test using Kaplan-Meier survival curves. […]

IL-12 [2] = test: IL-12 productivity of Mφ from treated JAK3 knockout mice; type: in vivo; conditions: stimulation with LPS and IFNγ, 1 mg/ml in drinking water 24 days, no productivity in control group
Method: (§1) The quantitative determination of IL-12 was conducted by a bioassay using human T cell strain 2D6 cells (refer to J. LEUKOCYTE BIOLOGY, vol. 61, PP 346, 1997).
(§2) The 2D6 cells cultured in RPMI 1640 medium containing 500 pg/ml of recombinant human IL-12, 50 μM 2-mercaptoethanol and 10% FCS (bovine fetal serum) were shifted into a tube and centrifugally washed three times with the same medium from which IL-12 was removed, and the cell concentration was adjusted to 1×10^5/ml. The cell suspension was added in an amount of 100 μl to each well of a 96-well flat bottom plate in which 100 μl of a sample diluted in series with RPMI 1640 medium containing 50 μM 2-mercaptoethanol and 10% FCS was previously charged in each well. The mixture was then charged into a 5% CO2 incubator at 37° C. to conduct the incubation for 48 hours. In the last 6 hours, ^3H-TdR was pulsed (a substance adjusted to 370 kBq/ml with RPMI 1640 medium containing 50 μM 2-mercaptoethanol and 10% FCS was added in an amount of 50 μl each). The cells were harvested, and a radioactivity was measured with a β counter (Matrix 96: manufactured by Packard).
(§3) JAK3 knockout mice were divided into three groups. […]

[3] = system: peritoneal Mφ of JAK3 knockout mice; test: GSH content in peritoneal cells of treated JAK3 knockout mice, ACAS with MCB reagent; type: in vivo; conditions: 1 mg/ml in drinking water, 24 days
Method: 300 μl of a cell suspension having cell concentration of 3×10^5 cells/ml was prepared in RPMI 1640 medium (phenol-red-free), and it was charged into a chambered coverglass (#136439 manufactured by Nunc) and incubated in a CO2 incubator of 37° C. for 2 hours. The culture solution was washed with the same medium, and 300 μl of 10 μM monochlorobimane (made by Molecular Plobe) prepared with the same medium was added thereto. The mixture was charged into a CO2 incubator of 37° C., and reacted for 30 minutes. An intensity of fluorescence was then measured by ACAS. By this way, UV laser was used in the ACAS.
JAK3 knockout mice were divided into three groups. A control group was a group in which mice were caused to freely drink usual tap water, an NAC group was a group in which mice were caused to freely drink tap water containing 1 mg/ml of NAC, and a GSH-OEt group was a group in which mice was caused to freely drink tap water containing 1 mg/ml of GSH-OEt. The bleeding was continued under SPF conditions for 24 days, and peritoneal exudate adhered cells, namely macrophages were obtained in like manner.
Peritoneal cells of knockout mice that underwent the respective treatments were prepared, and the GSH content in cells was analyzed by ACAS using an MCB reagent.

IL-6 = IL-6 productivity of Mφ from treated JAK3 knockout mice; type: in vivo; conditions: LPS stimulation, 1 mg/ml in drinking water 24 days, untreated knockout 962 pg/ml
Method: A stimulator was added to 1×10^6 Mφ, and the mixture was incubated in a CO2 incubator at 37° C. for 2 days. After centrifugation, the culture supernatant was collected.
The quantitative determination of IL-6 was conducted using mouse hybridoma MH60 cells grown dependently on IL-6 (refer to J. EUR. IMMUNOL., vol. 18, PP 951, 1988). 100 μl of the culture supernatant was added to 100 μl of the MH60 cell solution adjusted to a concentration of 1×10^5 cells/ml with a 10% FCS-containing RPMI medium, and the mixture was incubated in a CO2 incubator at 37° C. for 2 days. Then, 10 μl of MTT (made by Sigma) was adjusted to a concentration of 5 mg/ml with the same medium. The mixture was reacted at 37° C. for 5 hours. After completion of the reaction, the reaction mixture was centrifuged to remove 160 μl of the supernatant. 100 μl of hydrochloric acid-propanol was added thereto, and it was suspended therein with a pipette man to dissolve cells. Immediately after the dissolution, absorbance of 570 nm was measured by an immunometer (manufactured by Bio-Rad).
as §3

IL-12 [4] = test: IL-12 productivity of Mφ prepared by intraperitoneal injection of substances; type: in vivo, mice; conditions: stimulation with LPS and IFNγ; Mφ prepared by intraperitoneal injection of the substance
Method: as §1, §2
Mφ prepared by intraperitoneally injecting LNT is reductive Mφ having a high GSH content, and Mφ prepared by intraperitoneally injecting LPS is oxidative Mφ having a low GSH content. It was examined whether or not there was a difference in IL-12 productivity between LNT derived Mφ and LPS derived Mφ.
Then, the same analysis was conducted using Mφ prepared by intraperitoneally injecting substances of changing the GSH content in cells.

IL-12 [5] = test: Inhibition of IL-12 production from LNT-induced Mφ by addition of DEM or BCNU; type: cell-based
Method: as §1, §2
It was shown that IL-12 was produced only in reductive Mφ having the high GSH content in cells. […] That is, it was analyzed whether the IL-12 production was inhibited by stimulating the Mφ induced by LNT with DEM or BCNU.

[6] = system: peritoneal exudate cells (macrophages); test: Induction of oxidative or reductive macrophages, monochlorobimane/ACAS analysis of peritoneal exudate cells; type: in vivo; conditions: i.p. to mice: 20 μg LPS; 100 μg LNT three times every other day; monochlorobimane 10 μM, ACAS
Excerpt: The increase in amount of oxidative macrophages can easily be detected visually from the fact that almost no reaction product is observed. More specifically, a gray or blue image is obtained. An increase in amount of reductive macrophages is known from the fact that a red or yellow image can be obtained.

[7] = system: skin graft (B10.D2 donor, BALB/c recipient, different in minor antigen only); test: Skin transplantation rejection model; type: in vivo, mouse
Method: Mice, 8 to 10 weeks old, are used, a BALB/c (H-2d) mouse is used as a recipient in transplantation, and a B10.D2 (H-2d) mouse different in minor antigen only is used as a donor. To the recipient mouse, 3 mg of ketamine and 0.0075 mg of xylazine for anesthesia are intraperitoneally administered, and transplantation is performed. The skin on the body wall of the donor mouse is transplanted on the thoracic wall (8×8 mm). A gauze having a larger size than the graft covers there, and an antibiotic ointment is applied. The graft is fastened with a cast to complete the operation. The cast is removed after 7 days, and the rejection is then observed every day.
Mice, 8 to 10 weeks old, were used. A BALB/c (H-2d) mouse was used as a recipient of transplantation, and a B10.D2 (H-2d) mouse different in minor antigen only was used as a donor. […]
With respect to the drug, N,N′-diacetylcystine diethyl ester, 0.5 ml, per injection, of a 400 μg/ml solution was injected in each of the B10.D2 donor and the BALB/c recipient intraperitoneally and subcutaneously in a site for skin transplantation. […] The significant difference in graft survival rate after the skin transplantation was comparatively detected by the Breslow-Gehan-Wilcoxon test using Kaplan-Meier survival curves. […]

Question: Which results are given for COC(=O)[C@H](CSSC[C@H](NC(C)=O)C(=O)OC)NC(C)=O [NAC (OMe)2, N,N′-diacetylcystine dimethyl ester]?
Answer: graft survival rate in comparison to the PBS administration control group ([1]; 0.5 ml of 400 μg/ml i.p. 7 days, 4 days and 1 hour before corneal transplantation, N=15 vs N=10, P<0.0001, Breslow-Gehan-Wilcoxon test): significantly increased; rejection in 3 weeks ([1]; high-risk eye corneal graft, i.p. x3 before transplantation, PBS control rejected by 100% in approximately 3 weeks): 0%; graft survival rate finally provided ([1]; high-risk eye corneal graft, observed till the eighth week): 77%

Question: Which results are given for CC(=O)N[C@@H](CS)C(=O)O [NAC]?
Answer: IL-12 productivity (IL-12 [2]): 420 pg/mL; reduced glutathione content in peritoneal Mφ vs tap water control group [3]: remarkably increased; IL-6 productivity (IL-6): 122 pg/mi

Question: Which IL-12 productivity (IL-12 [4]) does the source give for letinan [LNT] here?
Answer: 1,312 pg/ml

Question: And the “IL-12 production from the Mφ induced by LNT” value (IL-12 [5]; without addition of DEM or BCNU)?
Answer: 828 pg/mL

Question: What about the “type of macrophages induced” value [6] of the same molecule?
Answer: reductive macrophages were induced

Question: CCOC(=O)CNC(=O)[C@H](CS)NC(=O)CC[C@H](N)C(=O)O [GSH-OEt] was tested. Which IL-12 productivity (IL-12 [4]) did it give?
Answer: 3,570 pg/ml

Question: What about the IL-12 productivity (IL-12 [2]) of the same molecule?
Answer: 610 pg/mL

Question: What about the “reduced glutathione content in peritoneal Mφ vs tap water control group” value [3] of the same molecule?
Answer: remarkably increased

Question: What about the IL-6 productivity (IL-6) of the same molecule?
Answer: 82 pg/mL

Question: With CCOC(=O)[C@H](CSSC[C@H](NC(C)=O)C(=O)OCC)NC(C)=O [N,N′-diacetylcystine diethyl ester] as the molecule, how does the MST ([7]; 0.5 ml of 400 μg/ml i.p. and s.c., x3 before (donor and recipient) and day 3-21 after skin transplantation, N=8) read?
Answer: 28.3 ± 1.8 days

Question: What about the “graft survival rate in comparison to the PBS administration control group” value ([7]; skin transplantation, N=8 vs N=10, P<0.013) of the same molecule?
Answer: significantly increased

Question: With lipopolysaccharide [LPS] as the molecule, how does the IL-12 productivity (IL-12 [4]) read?
Answer: no productivity was observed

Question: And the “type of macrophages induced” value [6]?
Answer: oxidative macrophages were induced

Question: How did the IL-12 productivity (IL-12 [4]) turn out when CCCCS(=N)(=O)CCC(N)C(=O)O [BSO, L-S, R-buthionine sulfoximine] was run?
Answer: IL-12 was produced by stimulation with LPS and IFNγ only in Mφ derived from mice administered with GSH-OEt

Question: For CCOC(=O)/C=C\C(=O)OCC [DEM], which IL-12 productivity (IL-12 [4]) is on record?
Answer: IL-12 was produced by stimulation with LPS and IFNγ only in Mφ derived from mice administered with GSH-OEt

Question: What about the “IL-12 production from the Mφ induced by LNT after addition” value (IL-12 [5]; addition of DEM or BCNU to LNT-induced Mφ, 828 pg/ml without addition) of the same molecule?
Answer: 0 pg/mL
